According to US20110152166A1, “METHOD OF MODULATION OF PROTEIN PHOSPHORYLATION-DEPENDENT CONFORMATIONAL TRANSITIONS WITH LOW MOLECULAR WEIGHT COMPOUNDS” (priority 2006, published 2011):
pKd: −log10 of the molar value.

Experiments:
[1] = tested on: GST-S6K1-T2[Thr412Ala] in HEK 293 cells; assay: S6K activation loop phosphorylation in transfected HEK 293 cells; assay type: cell-based, human; details: 200 μM, 90 minutes
Description: FIG. 4—Small compounds designed to bind the HM/PIF-pocket of PDK1 can block the PDK1-dependent phosphorylation and activation of substrates that require docking to the HM/PIF-pocket of PDK1. (A) Effect of compound 1 (100 and 200 μM) on PDK1 phosphorylation of its substrate S6K1. The phosphorylation reaction was performed in vitro with [γ^32P]ATP and then separated on SDS-PAGE followed by exposure to phosphorimager. The radioactive band corresponding to phosphorylated GST-56K1-T2[Thr412Glu] (S6K[412E]) is indicated. (B) PDK1 or PDK1[Val127Leu] (PDK1[V127L]) were pre-incubated with GST-[…]N-SGK1 [Ser422Asp] […] (C) The activity of S6K was measured in vitro after glutathione sepharose purification; aliquots of purified proteins were separated on SDS-PAGE and the level of activation loop phosphorylation was visualized by immunoblotting using phospho-specific antibodies that recognize the phosphorylated activation loop, followed by stripping of the membranes and re-probing with anti-GST to verify the presence of equal amounts of protein. (D) Cells overexpressing GST-56K1-T2[Thr412Glu] were treated as in (C) but S6K activity was measured in vitro after immunoprecipitation of the GST-fusion protein with anti-GST antibodies; the level of S6K expression was analysed by western-blotting of crude extracts. […]

PDK1 50-360 = target: T1, PDK1 50-360 (Homo sapiens, UniProt O15530); assay: Isothermal Titration Calorimetry; assay type: binding; details: ITC
T1 construct: the catalytic domain of PDK1 (50-359) produced in SF9 insect cells; His-tag (pFastbac-HT, TEV site) (N, cleaved yes); made in house; host or cells: Sf9 insect cells (baculovirus, pFastbac-HT)
T1 sequence (O15530 50-359): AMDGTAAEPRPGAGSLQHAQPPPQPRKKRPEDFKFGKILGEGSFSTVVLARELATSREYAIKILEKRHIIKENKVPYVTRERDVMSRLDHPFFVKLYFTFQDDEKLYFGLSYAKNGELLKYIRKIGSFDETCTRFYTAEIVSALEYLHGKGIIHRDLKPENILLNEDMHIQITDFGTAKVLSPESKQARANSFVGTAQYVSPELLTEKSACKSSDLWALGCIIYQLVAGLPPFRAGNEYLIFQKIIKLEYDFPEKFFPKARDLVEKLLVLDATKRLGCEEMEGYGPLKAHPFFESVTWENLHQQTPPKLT
Description: FIG. 8—Characterization of compound 1 interaction with PDK1 50-360 by Isothermal Titration Calorimetry (ITC). Upper panel, raw data of the titration of compound 1 into PDK1 50-360. Lower panel, integrated heats of injection, corrected for the heat of dilution, with the solid line corresponding to the best fit of the data using Origin™ software. The best fit corresponded to a model with one type of sites. […] The calorimetric titration was performed using the VP-ITC instrument from MicroCal Inc. (Northampton, Mass.) as previously described (Schaeffer et al., 2002) with the following modifications. PDK1 and compound 1 were prepared in 50 mM Tris-HCl (pH 7.5), 175 mM NaCl, 1 mM DTT and 3% DMSO. Titration was performed by 30 successive injections (10 μl) of compound 1 (0.9 mM) into a 1.41 ml reaction cell containing PDK1 50-360 ([…]). Raw calorimetric data were corrected for the heat of dilution, and analyzed using the program Origin™ provided by the manufacturer. Binding stoichiometry, enthalpy and equilibrium dissociation constants were determined by fitting corrected data to a model with a single binding site.

Q: For `O=C(O)CSC(CC(=O)c1ccc(Cl)cc1)c1ccccc1` (centres unmarked) [Compound 1], which “activation loop phosphorylation of S6K1-T2[Thr412Ala] (in words)” value [1] is on record?
A: significantly decreased

Q: What about the “N (binding stoichiometry)” value (PDK1 50-360) of the same compound?
A: 1.0 ± 0.1

Q: And the TΔS (PDK1 50-360)?
A: 4.3 ± 0.2 kcal/mol

Q: And the ΔH (PDK1 50-360)?
A: −2.1+0.1 kcal·mol^−1

Q: And the pKd (PDK1 50-360; one type of sites, pH 7.5, 3% DMSO)?
A: 4.74
